Source: US20020128256A1, “Methods for the treatment or prevention of inflammatory diseases characterized by abnormal cell proliferation” (priority 1997, published 2002)
Where two headings read alike, the source gives them in different places.

Legend:
[1] = target: T1, Gardos channel (Homo sapiens, UniProt O15554); set-up: host or cells: sickle erythrocytes (printed for Clotrimazole only); conditions: cited from earlier work
[2] = system: HeLa; assay: SRB antiproliferative assay, HeLa; type: cell-based; conditions: read-out: SRB assay IC50
Description: (§1) The antiproliferative assays described herein were performed using standard aseptic procedures and universal precautions for the use of tissues. Cells were propagated using RPMI 1640 media (Gibco) containing 2% N 5% fetal calf serum (Biowhittaker) at 37° C., 5% CO2 and 95% humidity. The cells were passaged using Trypsin (Gibco). Prior to addition of test compound, the cells were harvested, the cell number counted and seeded at 10,000 cells/well in 100 μl 5% fetal calf serum (FCS) containing RPMI medium in 96-well plates and incubated overnight at 37° C., 5% CO2 and 95% humidity.
(§2) Following incubation, the cellular protein was determined with the ulforhodamine B (SRB) assay (Skehan P et al., 1990, J. Natl. Cancer Inst. 82:1107-1112).

[3] = system: CaSki; assay: SRB antiproliferative assay, CaSki; type: cell-based; conditions: read-out: SRB assay IC50
Description: as §1, §2

[4] = system: MDA-MB-231; assay: SRB antiproliferative assay, MDA-MB-231; type: cell-based; conditions: read-out: SRB assay IC50
[5] = system: MCF7; assay: SRB antiproliferative assay, MCF7; type: cell-based
Description: as §1, §2

[6] = system: A549; assay: SRB antiproliferative assay, A549; type: cell-based
Description: as §1, §2

[7] = system: HTB174; assay: SRB antiproliferative assay, HTB174; type: cell-based; conditions: read-out: SRB assay IC50
Description: as §1, §2

[8] = system: HEPG2; assay: SRB antiproliferative assay, HEPG2; type: cell-based
Description: as §1, §2

[9] = system: DU-145; assay: SRB antiproliferative assay, DU-145; type: cell-based; conditions: read-out: SRB assay IC50
Description: as §1, §2

[10] = system: SK-MEL-28; assay: SRB antiproliferative assay, SK-MEL-28; type: cell-based; conditions: read-out: SRB assay IC50
Description: as §1, §2

[11] = system: MMRU; assay: SRB antiproliferative assay, MMRU; type: cell-based, human
Description: Cells were propagated using RPMI 1640 media (Gibco) containing 2% N 5% fetal calf serum (Biowhittaker) at 37° C., 5% CO2 and 95% humidity. The cells were passaged using Trypsin (Gibco). Prior to addition of test compound, the cells were harvested, the cell number counted and seeded at 10,000 cells/well in 100 μl 5% fetal calf serum (FCS) containing RPMI medium in 96-well plates and incubated overnight at 37° C., 5% CO2 and 95% humidity.
as §2

[12] = system: HT29; assay: SRB antiproliferative assay, HT29; type: cell-based
Description: as §1, §2

[13] = system: HCT-15; assay: SRB antiproliferative assay, HCT-15; type: cell-based; conditions: read-out: SRB assay IC50
Description: as §1, §2

[14] = system: ACHN; assay: SRB antiproliferative assay, ACHN; type: cell-based; conditions: read-out: SRB assay IC50
Description: as §1, §2

[15] = system: U118MG; assay: SRB antiproliferative assay, U118MG; type: cell-based
Description: as §1, §2

[16] = system: HUVEC; assay: SRB assay, normal cells HUVEC; type: cell-based, human; conditions: read-out: SRB assay IC50
Description: as §1, §2

[17] = system: GM; assay: SRB assay, normal cells GM; type: cell-based, human; conditions: read-out: SRB assay IC50
Description: as §1, §2

[18] = system: L929; assay: SRB assay, normal cells L929; type: cell-based, mouse; conditions: read-out: SRB assay IC50
Description: as §1, §2

[19] = system: NIH 3T3 mouse fibroblast cells; assay: Mitogenic Assay (mitogen-induced cell proliferation); type: cell-based
[20] = target: T2, Gardos channel of erythrocytes (Homo sapiens, UniProt O15554); assay: Gardos Channel Assay; type: cell-based; conditions: for IC50: erythrocytes, read-out: Gardos Channel Assay IC50; for inhibition at 10 µM: read-out: Gardos Channel Assay Inhibition (%)
T2 construct: endogenous in cells; host or cells: erythrocytes

[21] = target: T3, red cell Gardos channel (Mus musculus, UniProt O89109); conditions: oral administration; cited from earlier work
T3 construct: host or cells: red cells of SAD mouse

[22] = system: normal and cancer cell lines; conditions: cited from earlier work
[23] = system: MM-RU human melanoma cells; conditions: SCID mice, daily administration; cited from earlier work
[24] = target: T1, Gardos channel; set-up: reduces erythrocyte dehydration in patients with sickle cell disease; host or cells: erythrocytes of patients; conditions: oral therapy; cited from earlier work
[25] = system: 3T3; assay: SRB assay, normal cells 3T3; type: cell-based, mouse; conditions: read-out: SRB assay IC50
Description: as §1, §2

[26] = system: SK-OV-3; assay: SRB antiproliferative assay, SK-OV-3; type: cell-based; conditions: SK-OV-3 (Ovary); 5% FCS, 5 Day Incubation
Description: as §1, §2

[27] = Homo sapiens, MCF7, 120 h, read-out: SRB assay IC50
[28] = Homo sapiens, MCF7, read-out: SRB IC50
[29] = Homo sapiens, A549, 120 h, read-out: SRB assay IC50
[30] = Homo sapiens, A549, read-out: SRB IC50
[31] = Homo sapiens, HepG2, 120 h, read-out: SRB assay IC50
[32] = Homo sapiens, 120 h, read-out: SRB assay IC50
[33] = Homo sapiens, read-out: SRB IC50
[34] = Homo sapiens, HT-29, 120 h, read-out: SRB assay IC50
[35] = Homo sapiens, HT-29, read-out: SRB IC50
[36] = Homo sapiens, U-118-MG, 120 h, read-out: SRB assay IC50
[37] = Mus musculus, NIH3T3, measured at 10 μM compound, NIH 3T3 cells, read-out: Mitogenic Assay Inhibition (%)

T1 sequence (O15554 whole entry): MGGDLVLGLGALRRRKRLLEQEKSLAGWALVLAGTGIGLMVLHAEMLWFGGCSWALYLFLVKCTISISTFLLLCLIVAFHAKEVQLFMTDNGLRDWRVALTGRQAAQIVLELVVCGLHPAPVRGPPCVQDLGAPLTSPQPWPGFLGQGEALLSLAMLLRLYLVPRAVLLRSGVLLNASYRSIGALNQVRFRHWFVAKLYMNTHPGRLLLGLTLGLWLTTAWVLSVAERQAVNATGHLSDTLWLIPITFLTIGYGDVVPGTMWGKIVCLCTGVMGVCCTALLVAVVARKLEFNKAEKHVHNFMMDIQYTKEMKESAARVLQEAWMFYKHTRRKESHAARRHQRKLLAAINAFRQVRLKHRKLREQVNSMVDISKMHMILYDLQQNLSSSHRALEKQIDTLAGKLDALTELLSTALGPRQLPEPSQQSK
T2 sequence (O15554 whole entry): as above
T3 sequence (O89109 whole entry): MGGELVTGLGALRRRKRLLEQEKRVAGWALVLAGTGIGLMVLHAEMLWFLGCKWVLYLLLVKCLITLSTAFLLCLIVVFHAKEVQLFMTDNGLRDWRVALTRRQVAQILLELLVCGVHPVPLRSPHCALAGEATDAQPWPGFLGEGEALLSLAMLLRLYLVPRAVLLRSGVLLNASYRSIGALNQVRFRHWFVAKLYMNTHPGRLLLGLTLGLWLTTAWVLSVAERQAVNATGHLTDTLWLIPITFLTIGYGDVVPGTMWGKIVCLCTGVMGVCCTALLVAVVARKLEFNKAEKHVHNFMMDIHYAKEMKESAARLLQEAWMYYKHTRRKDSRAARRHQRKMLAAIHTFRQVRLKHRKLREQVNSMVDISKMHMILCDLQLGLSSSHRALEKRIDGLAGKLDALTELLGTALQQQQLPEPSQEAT

## Clc1ccc(COC(Cn2ccnc2)c2ccc(Cl)cc2Cl)cc1 (stereo not shown) [econazole]
[1]
  Gardos channel inhibition in vitro: inhibit the Gardos channel in vitro

## COc1cc([C@@H]2c3cc4c(cc3[C@@H](O[C@@H]3O[C@@H]5CO[C@@H](C)O[C@H]5[C@H](O)[C@H]3O)[C@H]3COC(=O)[C@H]23)OCO4)cc(OC)c1O [VP-16, Etoposide (VP-16), reference compound]
[2]; Homo sapiens, HeLa, 120 h
  IC50: < 1.25 µM
[3]; Homo sapiens, Ca-Ski, 120 h
  IC50: 1.8 µM
[4]; Homo sapiens, 120 h
  IC50: < 1.25 µM
[5]; [27]
  IC50: < 1.25 µM
[5]; [28]
  IC50: < 2.5 µM
[6]; [29]
  IC50: < 1.25 µM
[6]; [30]
  IC50: 2.3 µM
[7]; 120 h
  IC50: < 1.25 µM
[8]; [31]
  IC50: < 1.25 µM
[9]; Homo sapiens, DU-145, 120 h
  IC50: < 1.25 µM
[10]; Homo sapiens, SK-MEL-28, 120 h
  IC50: < 1.25 µM
[11]; [32]
  IC50: < 1.25 µM
[11]; [33]
  IC50: < 2.5 µM
[12]; [34]
  IC50: < 1.25 µM
[12]; [35]
  IC50: 20 µM
[13]; Homo sapiens, HCT-15, 120 h
  IC50: 1.3 µM
[14]; Homo sapiens, ACHN, 120 h
  IC50: < 1.25 µM
[15]; [36]
  IC50: 2.2 µM
[16]; Homo sapiens, HUVEC, 120 h
  IC50: < 1.25 µM
[17]; Homo sapiens, 120 h
  IC50: 1.4 µM
[18]; Mus musculus, L929, 120 h
  IC50: < 1.25 µM

## NC(=O)CC1C(O)c2ccccc2C1(c1ccccc1)c1ccccc1 (stereo not shown) [Compound 14, 2-Acetamide-3,3-diphenylindanol]
[19]; [37]
  inhibition at 10 µM: 3%
[20]
  IC50: 2.96 µM
[20]; measured at 10 μM compound
  inhibition at 10 µM: 90.5%
other
  melting point: 218 to 220 °C

## Clc1ccccc1C(c1ccccc1)(c1ccccc1)n1ccnc1 [Clotrimazole]
[19]; [37]
  inhibition at 10 µM: 93%
[20]
  inhibition at 10 µM: 99.3%
[21]
  Effect on red cells in SAD mouse: inhibition of the red cell Gardos channel, increased red cell K^+ content, a decreased mean cell hemoglobin concentration (MCHC) and decreased cell density
[22]
  Rate of cell proliferation in vitro: inhibits the rate of cell proliferation of normal and cancer cell lines in a reversible and dose-dependent manner
[23]
  Number of lung metastases: significant reduction in the number of lung metastases
[1]; in vitro, sickle erythrocytes
  Ca2+-activated K+ transport and cell dehydration in sickle erythrocytes: blocks Ca^2+-activated K^+ transport and cell dehydration in sickle erythrocytes
[24]
  Effect in patients with sickle cell disease: induces inhibition of the Gardos channel and reduces erythrocyte dehydration

## N#CCC1C(O)c2ccccc2C1(c1ccccc1)c1ccccc1 (stereo not shown) [Compound 13, 2-Cyanomethyl-3,3-diphenylindanol]
[19]; [37]
  inhibition at 10 µM: 12%
[20]
  IC50: 1.59 µM
[20]; measured at 10 μM compound
  inhibition at 10 µM: 99.5%
other
  melting point: 79 to 85 °C

## O=C1CC(c2ccc(Cl)cc2)(c2ccc(Cl)cc2)c2ccc(Cl)cc21 [Compound 8, 6-Chloro-3,3-di(4-chlorophenyl)indanone]
[19]; Mus musculus, NIH3T3, read-out: Mitogenic Assay IC50
  IC50: 2 µM
[19]; Mus musculus, NIH3T3, read-out: Mitogenic Assay Inhibition (%)
  inhibition at 10 µM: 97%
[2]; Homo sapiens, HeLa, 120 h
  IC50: > 10 µM
[3]; Homo sapiens, Ca-Ski, 120 h
  IC50: 6.8 µM
[4]; Homo sapiens, 120 h
  IC50: > 10 µM
[5]; [27]
  IC50: 5.5 µM
[5]; [28]
  IC50: > 10 µM
[6]; [29]
  IC50: 8.9 µM
[6]; [30]
  IC50: > 10 µM
[7]; 120 h
  IC50: > 10 µM
[8]; [31]
  IC50: 6.4 µM
[8]; Homo sapiens, HepG2, read-out: SRB IC50
  IC50: 7.8 µM
[9]; Homo sapiens, DU-145, 120 h
  IC50: > 10 µM
[10]; Homo sapiens, SK-MEL-28, 120 h
  IC50: > 10 µM
[11]; [32]
  IC50: > 10 µM
[11]; [33]
  IC50: 3.3 µM
[12]; [34]
  IC50: 8.3 µM
[12]; [35]
  IC50: > 10 µM
[13]; Homo sapiens, HCT-15, 120 h
  IC50: > 10 µM
[14]; Homo sapiens, ACHN, 120 h
  IC50: > 10 µM
[15]; [36]
  IC50: > 10 µM
[15]; Homo sapiens, U-118-MG, read-out: SRB IC50
  IC50: > 10 µM
[16]; Homo sapiens, HUVEC, 120 h
  IC50: > 10 µM
[17]; Homo sapiens, 120 h
  IC50: > 10 µM
[25]; Mus musculus, NIH3T3, 120 h
  IC50: > 10 µM
[18]; Mus musculus, L929, 120 h
  IC50: > 10 µM
other
  melting point: 134 °C

## Clc1ccc(COC(Cn2ccnc2)c2ccc(Cl)cc2Cl)c(Cl)c1 (stereo not shown) [miconazole]
[1]
  Gardos channel inhibition in vitro: inhibit the Gardos channel in vitro

## 6-Chloro-3,3-di(4′-chlorophenyl)-2-N-oxime-3,3-diphenylindane [Compound 11]
[19]; NIH 3T3 mouse fibroblast cells, mitogen-induced proliferation, read-out: Mitogenic Assay IC50
  IC50: 3.4 µM
[19]; measured at 10 μM compound, NIH 3T3 cells
  Mitogenic Assay Inhibition (%): 99.0%
[20]; measured at 10 μM compound
  Gardos Channel Assay Inhibition (%): 50.0%
[2]; HeLa (Cervical), 5% FCS, 5 Day Incubation
  IC50: 5.1 µM
[3]; CaSki (Cervical), 5% FCS, 5 Day Incubation
  IC50: 7 µM
[4]; MDA-MB-23 (Breast), 5% FCS, 5 Day Incubation
  IC50: > 10 µM
[5]; MCF7 (Breast), 5% FCS, 5 Day Incubation, read-out: SRB assay IC50
  IC50: 4.4 µM
[6]; A549 (Lung), 5% FCS, 5 Day Incubation, read-out: SRB assay IC50
  IC50: 8.8 µM
[7]; HTB174 (Lung), 5% FCS, 5 Day Incubation
  IC50: 5.9 µM
[8]; HEPG2 (Hepatocel), 5% FCS, 5 Day Incubation, read-out: SRB assay IC50
  IC50: 5.8 µM
[9]; DU-145 (Prostate), 5% FCS, 5 Day Incubation
  IC50: > 10 µM
[10]; SK-MEL-28 (Melanoma), 5% FCS, 5 Day Incubation
  IC50: 5.5 µM
[11]; MMRU (Melanoma), 5% FCS, 5 Day Incubation, read-out: SRB assay IC50
  IC50: 6.2 µM
[12]; HT29 (Colon), 5% FCS, 5 Day Incubation, read-out: SRB assay IC50
  IC50: 6.8 µM
[13]; HCT-15 (Colon), 5% FCS, 5 Day Incubation
  IC50: 6.6 µM
[14]; ACHN (Renal), 5% FCS, 5 Day Incubation
  IC50: > 10 µM
[15]; U118MG (CNS), 5% FCS, 5 Day Incubation, read-out: SRB assay IC50
  IC50: > 10 µM
[26]
  IC50: > 10 µM
[16]; HUVEC (Normal human), 5% FCS, 5 Day Incubation
  IC50: 6.4 µM
[17]; GM (Normal human), 5% FCS, 5 Day Incubation
  IC50: > 10 µM
[25]; 3T3 (Normal mouse), 5% FCS, 5 Day Incubation
  IC50: > 10 µM
[18]; L929 (Normal mouse), 5% FCS, 5 Day Incubation
  IC50: 8.6 µM

## Clc1ccc(CCC(Cn2ccnc2)Sc2c(Cl)cccc2Cl)cc1 (stereo not shown) [butoconazole]
[1]
  Gardos channel inhibition in vitro: inhibit the Gardos channel in vitro
